According to the supplement of paper PMC10307832:

Columns and labels:
Test in all cases: relative viability (nuclei count vs DMSO), 5 days (fraction); higher = more cells survive
NCI-H1793 = test system: NCI-H1793
Summary of the method: (§1)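 Medians of duplicate plates are given as relative viability. That measure is the nuclei count in treated wells divided by the count in vehicle wells. Counts were taken on 4× images of lung cancer cell lines in 1536-well plates, 5 days after pin-tool dosing the day after seeding with one drug alone or a fixed anchor-drug dose plus five library-drug doses (not always all listed) in √10 steps.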

SW 1573 = test system: SW 1573
Summary of the method: as §1

NCI-H460 = test system: NCI-H460
Summary of the method: as §1

LCLC-103H = test system: LCLC-103H
Summary of the method: as §1

PC-3 [JPC-3] = test system: PC-3 [JPC-3]
Summary of the method: as §1

HCC-44 = test system: HCC-44
Summary of the method: as §1

NCI-H838 = test system: NCI-H838
Summary of the method: as §1

LCLC-97TM1 = test system: LCLC-97TM1
Summary of the method: as §1

NCI-H1650 = test system: NCI-H1650
Summary of the method: as §1

NCI-H1944 = test system: NCI-H1944
Summary of the method: as §1

A-427 = test system: A-427
Summary of the method: as §1

NCI-H650 = test system: NCI-H650
Summary of the method: as §1

H3255 = test system: H3255
Summary of the method: as §1

LK-2 = test system: LK-2
Summary of the method: as §1

NCI-H727 = test system: NCI-H727
Summary of the method: as §1

201T = test system: 201T
Summary of the method: as §1

SW 900 = test system: SW 900
Summary of the method: as §1

COR-L23 = test system: COR-L23
Summary of the method: as §1

PC-14 = test system: PC-14
Summary of the method: as §1

LU99A = test system: LU99A
Summary of the method: as §1

NCI-H2347 = test system: NCI-H2347
Summary of the method: as §1

NCI-H23 = test system: NCI-H23
Summary of the method: as §1

CC1(C)CCC(c2ccc(Cl)cc2)=C(CN2CCN(c3ccc(C(=O)NS(=O)(=O)c4ccc(N[C@H](CCN5CCOCC5)CSc5ccccc5)c(S(=O)(=O)C(F)(F)F)c4)cc3)CC2)C1 [Navitoclax] + O=C(CCCCCCC(=O)Nc1ccccc1)NO [Vorinostat] (partner 1 µM)
relative viability (NCI-H1793; first compound 0.005 µM): 0.744
relative viability (NCI-H1793; first compound 0.01581 µM): 0.873
relative viability (NCI-H1793; first compound 0.1581 µM): 0.667
relative viability (NCI-H1793; first compound 0.5 µM): 0.444
relative viability (SW 1573; first compound 0.005 µM): 0.607
relative viability (SW 1573; first compound 0.01581 µM): 0.9
relative viability (SW 1573; first compound 0.05 µM): 0.683
relative viability (SW 1573; first compound 0.1581 µM): 0.475
relative viability (SW 1573; first compound 0.5 µM): 0.597
relative viability (NCI-H460; first compound 0.005 µM): 0.614
relative viability (NCI-H460; first compound 0.01581 µM): 0.7
relative viability (NCI-H460; first compound 0.05 µM): 0.561
relative viability (NCI-H460; first compound 0.1581 µM): 0.645
relative viability (NCI-H460; first compound 0.5 µM): 0.737
relative viability (LCLC-103H; first compound 0.005 µM): 0.73
relative viability (LCLC-103H; first compound 0.01581 µM): 0.928
relative viability (LCLC-103H; first compound 0.05 µM): 0.96
relative viability (LCLC-103H; first compound 0.1581 µM): 0.807
relative viability (LCLC-103H; first compound 0.5 µM): 0.665
relative viability (PC-3 [JPC-3]; first compound 0.005 µM): 0.874
relative viability (PC-3 [JPC-3]; first compound 0.01581 µM): 0.868
relative viability (PC-3 [JPC-3]; first compound 0.05 µM): 0.877
relative viability (PC-3 [JPC-3]; first compound 0.1581 µM): 0.817
relative viability (PC-3 [JPC-3]; first compound 0.5 µM): 0.499
relative viability (HCC-44; first compound 0.005 µM): 1.13
relative viability (HCC-44; first compound 0.01581 µM): 1.07
relative viability (HCC-44; first compound 0.05 µM): 0.988
relative viability (HCC-44; first compound 0.1581 µM): 1.12
relative viability (HCC-44; first compound 0.5 µM): 1.09
relative viability (NCI-H838; first compound 0.005 µM): 0.678
relative viability (NCI-H838; first compound 0.01581 µM): 0.73
relative viability (NCI-H838; first compound 0.05 µM): 0.76
relative viability (NCI-H838; first compound 0.1581 µM): 0.73
relative viability (NCI-H838; first compound 0.5 µM): 0.667
relative viability (LCLC-97TM1; first compound 0.005 µM): 0.857
relative viability (LCLC-97TM1; first compound 0.01581 µM): 0.745
relative viability (LCLC-97TM1; first compound 0.05 µM): 0.659
relative viability (LCLC-97TM1; first compound 0.1581 µM): 0.717
relative viability (LCLC-97TM1; first compound 0.5 µM): 0.979
relative viability (NCI-H1650; first compound 0.005 µM): 0.5
relative viability (NCI-H1650; first compound 0.01581 µM): 0.66
relative viability (NCI-H1650; first compound 0.05 µM): 0.671
relative viability (NCI-H1650; first compound 0.1581 µM): 0.63
relative viability (NCI-H1650; first compound 0.5 µM): 0.651
relative viability (NCI-H1944; first compound 0.005 µM): 0.54
relative viability (NCI-H1944; first compound 0.01581 µM): 0.603
relative viability (NCI-H1944; first compound 0.1581 µM): 0.457
relative viability (NCI-H1944; first compound 0.5 µM): 0.578
relative viability (A-427; first compound 0.005 µM): 0.915
relative viability (A-427; first compound 0.01581 µM): 0.873
relative viability (A-427; first compound 0.05 µM): 0.91
relative viability (A-427; first compound 0.1581 µM): 0.892
relative viability (A-427; first compound 0.5 µM): 0.838
relative viability (NCI-H650; first compound 0.005 µM): 0.503
relative viability (NCI-H650; first compound 0.01581 µM): 0.448
relative viability (NCI-H650; first compound 0.05 µM): 0.431
relative viability (NCI-H650; first compound 0.1581 µM): 0.463
relative viability (NCI-H650; first compound 0.5 µM): 0.453
relative viability (H3255; first compound 0.005 µM): 0.787
relative viability (H3255; first compound 0.01581 µM): 0.958
relative viability (H3255; first compound 0.05 µM): 0.874
relative viability (H3255; first compound 0.1581 µM): 0.794
relative viability (H3255; first compound 0.5 µM): 0.586
relative viability (LK-2; first compound 0.005 µM): 0.293
relative viability (LK-2; first compound 0.01581 µM): 0.33
relative viability (LK-2; first compound 0.05 µM): 0.367
relative viability (LK-2; first compound 0.1581 µM): 0.307
relative viability (LK-2; first compound 0.5 µM): 0.277
relative viability (NCI-H727; first compound 0.005 µM): 1.28
relative viability (NCI-H727; first compound 0.01581 µM): 1.34
relative viability (NCI-H727; first compound 0.05 µM): 0.901
relative viability (NCI-H727; first compound 0.1581 µM): 1.12
relative viability (NCI-H727; first compound 0.5 µM): 1.16
relative viability (201T; first compound 0.005 µM): 1.05
relative viability (201T; first compound 0.01581 µM): 1.12
relative viability (201T; first compound 0.05 µM): 0.89
relative viability (201T; first compound 0.1581 µM): 0.937
relative viability (201T; first compound 0.5 µM): 1.02
relative viability (SW 900; first compound 0.005 µM): 0.432
relative viability (SW 900; first compound 0.01581 µM): 0.573
relative viability (SW 900; first compound 0.1581 µM): 0.478
relative viability (SW 900; first compound 0.5 µM): 0.365
relative viability (COR-L23; first compound 0.005 µM): 0.475
relative viability (COR-L23; first compound 0.01581 µM): 0.535
relative viability (COR-L23; first compound 0.05 µM): 0.425
relative viability (COR-L23; first compound 0.1581 µM): 0.386
relative viability (COR-L23; first compound 0.5 µM): 0.411
relative viability (PC-14; first compound 0.005 µM): 0.746
relative viability (PC-14; first compound 0.01581 µM): 0.794
relative viability (PC-14; first compound 0.05 µM): 0.59
relative viability (PC-14; first compound 0.1581 µM): 0.712
relative viability (PC-14; first compound 0.5 µM): 0.687
relative viability (LU99A; first compound 0.005 µM): 0.487
relative viability (LU99A; first compound 0.01581 µM): 0.451
relative viability (LU99A; first compound 0.1581 µM): 0.539
relative viability (LU99A; first compound 0.5 µM): 0.469
relative viability (NCI-H2347; first compound 0.005 µM): 0.623
relative viability (NCI-H2347; first compound 0.01581 µM): 0.628
relative viability (NCI-H2347; first compound 0.05 µM): 0.534
relative viability (NCI-H2347; first compound 0.1581 µM): 0.61
relative viability (NCI-H2347; first compound 0.5 µM): 0.542
relative viability (NCI-H23; first compound 0.005 µM): 0.594
relative viability (NCI-H23; first compound 0.01581 µM): 0.468
relative viability (NCI-H23; first compound 0.05 µM): 0.505
relative viability (NCI-H23; first compound 0.1581 µM): 0.478
relative viability (NCI-H23; first compound 0.5 µM): 0.544
